USRE48335E1, “Polymyxin derivatives as antimicrobial compounds” (priority 2014, dated 2020)
Converted amounts (≈) assume the structure as drawn. Positions of bridges follow the written chain, without caps; N, C: chain ends. Non-standard residues stand in square brackets, D forms with d. Residues, ends and D or L forms follow the SMILES beside them. *: point of attachment. Decanoyl = CCCCCCCCCC(=O)*; Octanoyl = CCCCCCCC(=O)*; Orn = NCCC[C@H](N)C(=O)O; Dab = NCC[C@H](N)C(=O)O; Dap = NC[C@H](N)C(=O)O

Legend:
Acinetobacter baumannii = tested on: Acinetobacter baumannii
Description: (§1) MICs of the lipopeptides (trifluoroacetic acid salt, TFA) were determined by broth microdilution in cation-adjusted Mueller-Hinton broth (CAMHB) (Oxoid Australia, Thebarton, SA, Australia) according to Clinical and Laboratory Standards Institute standards (Clinical and Laboratory Standards Institute. Performance standards for antimicrobial susceptibility testing; eighteenth informational supplement M100-S18. Wayne, Pa., 2008). Polymyxin B (sulphate) was employed as control. […]

Enterobacter cloacae = tested on: Enterobacter cloacae
Description: as §1

Pseudomonas aeruginosa = tested on: Pseudomonas aeruginosa
Description: as §1

SMILES	Minimum inhibitory concentration, Ab A ATCC 17978 (Acinetobacter baumannii) [µg/mL]	Minimum inhibitory concentration, Ab ATCC 19606 (Acinetobacter baumannii) [µg/mL]	Minimum inhibitory concentration, Ab FADDI-AB034 (Acinetobacter baumannii) [µg/mL]	Minimum inhibitory concentration, Ec FADDI-EC001 (Enterobacter cloacae) [µg/mL]	Minimum inhibitory concentration, Ec FADDI-EC003 (Enterobacter cloacae) [µg/mL]	Minimum inhibitory concentration, Ec FADDI-EC006 (Enterobacter cloacae) [µg/mL]	Minimum inhibitory concentration, Pa ATCC 27853 (Pseudomonas aeruginosa) [µg/mL]	Minimum inhibitory concentration, Pa FADDI-PA022 (Pseudomonas aeruginosa) [µg/mL]	Minimum inhibitory concentration, Pa FADDI-PA025 (Pseudomonas aeruginosa) [µg/mL]
CCCCCCCC(=O)N[C@@H](CCCN)C(=O)N[C@H](C(=O)N[C@@H](CCN)C(=O)N[C@H]1CCNC(=O)[C@H]([C@@H](C)O)NC(=O)[C@H](CCN)NC(=O)[C@H](CCN)NC(=O)[C@H]([C@@H](C)O)NC(=O)[C@@H](CC(C)C)NC(=O)[C@H](CCN)NC1=O)[C@@H](C)O [Compound 32] (Octanoyl-[Orn]T[Dab][Dab][Dab][dL]T[Dab][Dab]T; lactam 4-C)	>32	>32	>32	1 (≈ 0.864 µM)	1 (≈ 0.864 µM)	>32	>32	1 (≈ 0.864 µM)	>32
CCCCCCCC(=O)N[C@@H](CCN)C(=O)N[C@H](C(=O)N[C@@H](CCCN)C(=O)N[C@H]1CCNC(=O)[C@H]([C@@H](C)O)NC(=O)[C@H](CCN)NC(=O)[C@H](CCN)NC(=O)[C@H]([C@@H](C)O)NC(=O)[C@@H](CC(C)C)NC(=O)[C@H](CCN)NC1=O)[C@@H](C)O [Compound 34] (Octanoyl-[Dab]T[Orn][Dab][Dab][dL]T[Dab][Dab]T; lactam 4-C)	2 (≈ 1.73 µM)	2 (≈ 1.73 µM)	2 (≈ 1.73 µM)	<0.125	<0.125	4 (≈ 3.46 µM)	1 (≈ 0.864 µM)	0.5 (≈ 0.432 µM)	>32
CCCCCCCC(=O)N[C@@H](CCN)C(=O)N[C@H](C(=O)N[C@@H](CN)C(=O)N[C@H]1CCNC(=O)[C@H]([C@@H](C)O)NC(=O)[C@H](CCN)NC(=O)[C@H](CCN)NC(=O)[C@H](C(C)C)NC(=O)[C@@H](CC(C)C)NC(=O)[C@H](CCN)NC1=O)[C@@H](C)O [Compound 36] (Octanoyl-[Dab]T[Dap][Dab][Dab][dL]V[Dab][Dab]T; lactam 4-C)	0.5 (≈ 0.443 µM)	0.25 (≈ 0.222 µM)	0.5 (≈ 0.443 µM)	0.25 (≈ 0.222 µM)	<0.125	0.25 (≈ 0.222 µM)	1 (≈ 0.887 µM)	1 (≈ 0.887 µM)	4 (≈ 3.55 µM)
CCCCCCCCCC(=O)N[C@@H](CCN)C(=O)N[C@H](C(=O)N[C@@H](CN)C(=O)N[C@H]1CCNC(=O)[C@H]([C@@H](C)O)NC(=O)[C@H](CCN)NC(=O)[C@H](CCN)NC(=O)[C@H]([C@@H](C)O)NC(=O)[C@@H](CC(C)C)NC(=O)[C@H](CCN)NC1=O)[C@@H](C)O [Compound 37] (Decanoyl-[Dab]T[Dap][Dab][Dab][dL]T[Dab][Dab]T; lactam 4-C)	0.5 (≈ 0.432 µM)	0.25 (≈ 0.216 µM)	0.25 (≈ 0.216 µM)	0.5 (≈ 0.432 µM)	4 (≈ 3.46 µM)	0.5 (≈ 0.432 µM)	1 (≈ 0.864 µM)	0.5 (≈ 0.432 µM)	2 (≈ 1.73 µM)
CCCCCCCCCC(=O)N[C@@H](CCN)C(=O)N[C@H](C(=O)N[C@@H](CN)C(=O)N[C@H]1CCNC(=O)[C@H]([C@@H](C)O)NC(=O)[C@H](CCN)NC(=O)[C@H](CCN)NC(=O)[C@H](C)NC(=O)[C@@H](CC(C)C)NC(=O)[C@H](CCN)NC1=O)[C@@H](C)O [Compound 38] (Decanoyl-[Dab]T[Dap][Dab][Dab][dL]A[Dab][Dab]T; lactam 4-C)	0.5 (≈ 0.443 µM)	0.5 (≈ 0.443 µM)	1 (≈ 0.887 µM)	0.5 (≈ 0.443 µM)	0.5 (≈ 0.443 µM)	1 (≈ 0.887 µM)	1 (≈ 0.887 µM)	2 (≈ 1.77 µM)	2 (≈ 1.77 µM)
CCCCCCCCCC(=O)N[C@@H](CCN)C(=O)N[C@H](C(=O)N[C@@H](CN)C(=O)N[C@H]1CCNC(=O)[C@H]([C@@H](C)O)NC(=O)[C@H](CCN)NC(=O)[C@H](CCN)NC(=O)[C@H](C(C)C)NC(=O)[C@@H](CC(C)C)NC(=O)[C@H](CCN)NC1=O)[C@@H](C)O [Compound 39] (Decanoyl-[Dab]T[Dap][Dab][Dab][dL]V[Dab][Dab]T; lactam 4-C)	2 (≈ 1.73 µM)	0.5 (≈ 0.433 µM)	1 (≈ 0.865 µM)	0.5 (≈ 0.433 µM)	0.5 (≈ 0.433 µM)	0.5 (≈ 0.433 µM)	1 (≈ 0.865 µM)	2 (≈ 1.73 µM)	2 (≈ 1.73 µM)
CCCCCCCCCC(=O)N[C@@H](CCN)C(=O)N[C@H](C(=O)N[C@@H](CCN)C(=O)N[C@H]1CCNC(=O)[C@H]([C@@H](C)O)NC(=O)[C@H](CCN)NC(=O)[C@H](CCN)NC(=O)[C@H](C)NC(=O)[C@@H](CC(C)C)NC(=O)[C@H](CCN)NC1=O)[C@@H](C)O [Compound 40] (Decanoyl-[Dab]T[Dab][Dab][Dab][dL]A[Dab][Dab]T; lactam 4-C)	0.5 (≈ 0.438 µM)	0.5 (≈ 0.438 µM)	0.5 (≈ 0.438 µM)	0.25 (≈ 0.219 µM)	0.25 (≈ 0.219 µM)	0.25 (≈ 0.219 µM)	0.5 (≈ 0.438 µM)	2 (≈ 1.75 µM)	4 (≈ 3.5 µM)
CCCCCCCCCC(=O)N[C@@H](CCN)C(=O)N[C@H](C(=O)N[C@@H](CCN)C(=O)N[C@H]1CCNC(=O)[C@H]([C@@H](C)O)NC(=O)[C@H](CCN)NC(=O)[C@H](CCN)NC(=O)[C@H](C(C)C)NC(=O)[C@@H](CC(C)C)NC(=O)[C@H](CCN)NC1=O)[C@@H](C)O [Compound 41] (Decanoyl-[Dab]T[Dab][Dab][Dab][dL]V[Dab][Dab]T; lactam 4-C)	1 (≈ 0.855 µM)	1 (≈ 0.855 µM)	0.5 (≈ 0.428 µM)	1 (≈ 0.855 µM)	0.5 (≈ 0.428 µM)	0.5 (≈ 0.428 µM)	1 (≈ 0.855 µM)	4 (≈ 3.42 µM)	2 (≈ 1.71 µM)
